Measured values published in patent US20250235427A1, “5-METHOXY-N,N-[…][…] THE TREATMENT OF SOCIAL/EMOTIONAL […] DETACHMENT” (GH RESEARCH IRELAND LIMITED, priority 2022, published 2025).

Test system: patients with postpartum depression (PPD)
Test: Clinical trial, inhaled 5-MeO-DMT individualized dosing regimen in postpartum depression (one patient so far)
Protocol: The single-arm, open-label clinical trial will involve 15 adult female patients with clinically diagnosed postpartum depression (PPD).
The second dose (12 mg) will only be administered if: • a. […] The 6 mg dose was safe and well-tolerated according to the investigator, • c. Any psychoactive effects (PsE) of the prior dose have subsided, and • d. Pre-dose vital parameters and forced expiratory volume in one second (FEV1) are in normal range, or if outside of the normal range, are not clinically significant according to the investigator. • 3. Similarly, a third dose (18 mg) will only be administered if: • a. […] The 12 mg dose was safe and well-tolerated according to the investigator, and • c. Any PsE of the prior dose have subsided, and • d. Pre-dose vital parameters and forced expiratory volume in one second (FEV1) are in normal range, or if outside of the normal range, are not clinically significant according to the investigator.
The patients will be assessed for a peak psychedelic experience (based on a patient-scored visual analogue scale, the PE scale), sedation, and other endpoints after dosing. Follow-up visits are planned for Day 1, and Day 7 after the dosing day.

SMILES: COc1ccc2[nH]cc(CCN(C)C)c2c1 [5-MeO-DMT]
- BPRS Disorientation score (Day 7, baseline 1): 1
- BPRS Grandiosity improvement (Day 7, baseline 1): 0
- BPRS Grandiosity score (Day 7, baseline 1): 1
- BPRS Hallucinatory behaviour improvement (Day 7, baseline 1): 0
- BPRS Hallucinatory behaviour score (Day 7, baseline 1): 1
- BPRS Hostility improvement (Day 7, baseline 1): 0
- BPRS Hostility score (Day 7, baseline 1): 1
- BPRS Mannerisms and Posturing improvement (Day 7, baseline 1): 0
- BPRS Mannerisms and Posturing score (Day 7, baseline 1): 1
- BPRS Motor retardation improvement (Day 7, baseline 1): 0
- BPRS Motor retardation score (Day 7, baseline 1): 1
- BPRS Suspiciousness improvement (Day 7, baseline 1): 0
- BPRS Suspiciousness score (Day 7, baseline 1): 1
- BPRS Uncooperativeness improvement (Day 7, baseline 1): 0
- BPRS Uncooperativeness score (Day 7, baseline 1): 1
- BPRS Unusual Thought Content improvement (Day 7, baseline 1): 0
- BPRS Unusual Thought Content score (Day 7, baseline 1): 1
- BPRS Excitement improvement (Day 7, baseline 2): 1
- BPRS Excitement score (Day 7, baseline 2): 1
- MADRS Inability to Feel improvement (Day 7, baseline 3): 3
- MADRS Inability to Feel score (Day 7, baseline 3): 0
- MADRS Lassitude improvement (Day 7, baseline 3): 3
- MADRS Lassitude score (Day 7, baseline 3): 0
- MADRS Pessimistic Thoughts improvement (Day 7, baseline 4): 4
- MADRS Pessimistic Thoughts score (Day 7, baseline 4): 0
- MADRS Reported sadness improvement (Day 7, baseline 4): 4
- MADRS Reported sadness score (Day 7, baseline 4): 0
- BPRS Emotional withdrawal improvement (Day 7, baseline 5): 4
- BPRS Emotional withdrawal score (Day 7, baseline 5): 1
- MADRS Apparent sadness improvement (Day 7, baseline 5): 5
- MADRS Apparent sadness score (Day 7, baseline 5): 0
- MADRS Inner Tension improvement (Day 7, baseline 5): 4
- MADRS Inner Tension score (Day 7, baseline 5): 1
- MADRS Reduced Sleep improvement (Day 7, baseline 5): 5
- MADRS Reduced Sleep score (Day 7, baseline 5): 0
- BPRS Depressive Mood improvement (Day 7, baseline 6): 5
- BPRS Depressive Mood score (Day 7, baseline 6): 1
- BPRS Guilt feelings improvement (Day 7, baseline 6): 5
- BPRS Guilt feelings score (Day 7, baseline 6): 1
- BPRS Somatic Concern improvement (Day 7, baseline 6): 5
- BPRS Somatic Concern score (Day 7, baseline 6): 1
- BPRS Tension improvement (Day 7, baseline 6): 5
- BPRS Tension score (Day 7, baseline 6): 1
- BPRS Anxiety improvement (Day 7, baseline 7): 6
- BPRS Anxiety score (Day 7, baseline 7): 1
- BIMF functional domain Adjustment Δ (Day 7) (Day 7 vs Day 0): 1
- BIMF functional domain Infant Care Δ (Day 7) (Day 7 vs Day 0): 0
- BIMF functional domain Management Δ (Day 7) (Day 7 vs Day 0): 5
- BIMF functional domain Mother-Child Interaction Δ (Day 7) (Day 7 vs Day 0): 2
- BIMF functional domain Psychological Well-being Δ (Day 7) (Day 7 vs Day 0): 9
- BIMF functional domain Self Care Δ (Day 7) (Day 7 vs Day 0): 4
- BIMF functional domain Social Support Δ (Day 7) (Day 7 vs Day 0): 1
- BIMF item 1 (I am a good mother) Δ (Day 7) (Day 7 vs Day 0): 0
- BIMF item 2 (I feel rested) Δ (Day 7) (Day 7 vs Day 0): 2
- BIMF item 3 (I am comfortable with the way I've chosen to feed my baby) Δ (Day 7) (Day 7 vs Day 0): 0
- BIMF item 4 (My baby and I understand each other) Δ (Day 7) (Day 7 vs Day 0): 0
- BIMF item 5 (I am able to relax and enjoy time with my baby) Δ (Day 7) (Day 7 vs Day 0): 1
- BIMF item 6 (There are people in my life that I can trust to care for my baby when I need a break) Δ (Day 7) (Day 7 vs Day 0): 0
- BIMF item 8 (I am getting enough adult interaction) Δ (Day 7) (Day 7 vs Day 0): 0
- BIMF item 9 (I am getting enough encouragement from other people) Δ (Day 7) (Day 7 vs Day 0): 1
- BIMF item 10 (I trust my own feelings (instincts) when it comes to taking care of my baby) Δ (Day 7) (Day 7 vs Day 0): 1
- BIMF item 11 (I take a little time each week to do something for myself) Δ (Day 7) (Day 7 vs Day 0): 1
- BIMF item 12 (I am taking good care of my baby's physical needs) Δ (Day 7) (Day 7 vs Day 0): 0
- BIMF item 13 (I am taking good care of my physical needs) Δ (Day 7) (Day 7 vs Day 0): 1
- BIMF item 14 (I make good decisions about my baby's health and well being) Δ (Day 7) (Day 7 vs Day 0): 0
- BIMF item 15 (My baby and I are getting into a routine) Δ (Day 7) (Day 7 vs Day 0): 1
- BIMF item 16 (I worry about how other people judge me (as a mother)) Δ (Day 7) (Day 7 vs Day 0): 2
- BIMF item 17 (I am able to take care of my baby and my other responsibilities) Δ (Day 7) (Day 7 vs Day 0): 0
- BIMF item 18 (Anxiety or worry often interferes with my mothering ability) Δ (Day 7) (Day 7 vs Day 0): 3
- BIMF item 19 (As time goes on, I am getting better at taking care of my baby) Δ (Day 7) (Day 7 vs Day 0): 1
- BIMF item 20 (I am satisfied with the job I am doing as a new mother) Δ (Day 7) (Day 7 vs Day 0): −1
- BPRS Blunted affect improvement (Discharge, baseline 1): 0
- BPRS Blunted affect score (Discharge, baseline 1): 1
- BPRS Conceptual disorganization improvement (Discharge, baseline 1): 0
- BPRS Conceptual disorganization score (Discharge, baseline 1): 1
- BPRS Disorientation improvement (Discharge, baseline 1): 0
- BPRS Disorientation score (Discharge, baseline 1): 1
- BPRS Grandiosity improvement (Discharge, baseline 1): 0
- BPRS Grandiosity score (Discharge, baseline 1): 1
- BPRS Hallucinatory behaviour improvement (Discharge, baseline 1): 0
- BPRS Hallucinatory behaviour score (Discharge, baseline 1): 1
- BPRS Hostility improvement (Discharge, baseline 1): 0
- BPRS Hostility score (Discharge, baseline 1): 1
- BPRS Mannerisms and Posturing improvement (Discharge, baseline 1): 0
- BPRS Mannerisms and Posturing score (Discharge, baseline 1): 1
- BPRS Motor retardation improvement (Discharge, baseline 1): 0
- BPRS Motor retardation score (Discharge, baseline 1): 1
- BPRS Suspiciousness improvement (Discharge, baseline 1): 0
- BPRS Suspiciousness score (Discharge, baseline 1): 1
- BPRS Uncooperativeness improvement (Discharge, baseline 1): 0
- BPRS Uncooperativeness score (Discharge, baseline 1): 1
- BPRS Unusual Thought Content improvement (Discharge, baseline 1): 0
- BPRS Unusual Thought Content score (Discharge, baseline 1): 1
- BPRS Excitement improvement (Discharge, baseline 2): 1
- BPRS Excitement score (Discharge, baseline 2): 1
- BPRS Emotional withdrawal improvement (Discharge, baseline 5): 4
- BPRS Emotional withdrawal score (Discharge, baseline 5): 1
- BPRS Depressive Mood improvement (Discharge, baseline 6): 5
- BPRS Depressive Mood score (Discharge, baseline 6): 1
- BPRS Guilt feelings improvement (Discharge, baseline 6): 5
- BPRS Guilt feelings score (Discharge, baseline 6): 1
- BPRS Somatic Concern improvement (Discharge, baseline 6): 5
- BPRS Somatic Concern score (Discharge, baseline 6): 1
- BPRS Tension score (Discharge, baseline 6): 1
- BPRS Anxiety improvement (Discharge, baseline 7): 6
- BPRS Anxiety score (Discharge, baseline 7): 1
- ECG, safety laboratory analyses, CADSS (ECG 3 hours, laboratory 7 days, CADSS 3 hours, 1 day and 7 days): unremarkable
- changes in vital parameters (shortly after administration): temporary, clinically non-relevant increase in heart rate and blood pressure
